Test results published in patent publication US12473534B2, “Composition for culturing peripheral blood monocyte-derived regulatory t cell and regulatory T cell culturing method using same” (Immunisbio Co., Ltd., priority 2019, dated 2025).

Assays:
[1] = system: regulatory T cells derived from peripheral blood mononuclear cells; assay: Culturing of regulatory T cells from peripheral blood mononuclear cells with myricetin or superoxide dismutase, FACS analysis; type: cell-based, human; settings: for CD4+, CD25+, CD127− (%): flow cytometry; for Total number of cells: start 2.0×10^7 cells, control 20.8
Method: 30 mL to 60 mL of human peripheral blood was collected using a 10 mL heparinized vacuum blood collection tube (BD Vacutainer TM). Then, 15 mL of a solution of Ficoll-Paque Plus (endotoxin tested, density 1.077 g/mL, GE Healthcare, USA) was put into a 50 mL lymphocyte separation tube (Leucosep, Greiner Bio-One, Swiss), and the solution was allowed to precipitate down to a glass membrane in the tube by centrifugation at 2000 rpm. The collected blood was transferred to a separation tube and centrifuged at 2500 rpm to separate the erythrocytes and granulocyte layer at the bottom, and the mononuclear cell layer and platelets at the top, thereby separating the blood components. After centrifugation, the plasma in the separated upper layer was inactivated in a water bath at 56° C. for 30 minutes. After centrifugation, the separated lymphocyte layer was collected using a sterilized pipette and collected in a 15 mL tube. After the 15 mL tube with the collected lymphocytes were centrifuged, the supernatant was removed. Cells were washed by adding 10 mL of a buffer solution (PBS) to the lymphocytes from which the supernatant had been removed and suspending the cells. The number of cells was measured from some of the suspension using a hemocytometer, and only lymphocytes were collected by centrifuging again. In this case, the number of harvested lymphocytes was measured to be 20×10^6 cells in total, and the harvested lymphocytes were cultured according to Example 1 below. After the lymphocytes prepared in Experimental Example 1 were taken, the lymphocytes were cultured in a T-flask (SPL Life Sciences) containing a culture solution and 0.2 to 2 mL of plasma in a 5% CO2 incubator at 37° C. for 4 to 14 days. Furthermore, in order to induce a reaction with an activation receptor present on the cell surface of regulatory T cells, 0.001 to 0.03 of one or more antibodies selected from the group consisting of anti-CD2, anti-CD3, anti-CD7, anti-CD8, anti-CD28, anti-CD30L, anti-CD40, anti-CD70, anti-CD80, anti-CD83 and anti-CD86; one or more cytokines selected from the group consisting of interleukin-2, interleukin-4, interleukin-7, interleukin-12, interleukin-15, interleukin-34 and TGF-β; 0 to 250 μM of myricetin; and 0 to 50 μM of superoxide dismutase were administered. That is, lymphocytes measured to be a total number of 2.0×10^7 cells were added to 5 to 100 mL of KBM502 medium including the above-described plasma, antibodies, cytokines, myricetin and superoxide dismutase, and cultured in a CO2 incubator for 4 to 14 days. To confirm the differentiation of regulatory T cells, staining was performed with an anti-human antibody or mouse isotype antibody (BD-Pharmingen San Jose, USA) under a condition of CD4+, CD25+ and CD127−, which are surface proteins of regulatory T cells, measured by flow cytometry, and then analyzed using BD Accuri C6 Plus.

[2] = system: regulatory T cells derived from peripheral blood mononuclear cells after removal of CD8+ cells; assay: Culturing of regulatory T cells with myricetin and superoxide dismutase only or in combination after removal of CD8, FACS analysis; type: cell-based, human; settings: for Total number of cells: control 18.2
Method: After the lymphocytes prepared in Experimental Example 1 were taken, the lymphocytes were cultured in a T-flask (SPL Life Sciences) containing a culture solution and 0.2 to 2 mL of plasma in a 5% CO2 incubator at 37° C. for 4 to 14 days. Furthermore, in order to induce a reaction with an activation receptor present on the cell surface of regulatory T cells, 0.001 to 0.03 of one or more antibodies selected from the group consisting of anti-CD2, anti-CD3, anti-CD7, anti-CD8, anti-CD28, anti-CD30L, anti-CD40, anti-CD70, anti-CD80, anti-CD83 and anti-CD86; one or more cytokines selected from the group consisting of interleukin-2, interleukin-4, interleukin-7, interleukin-12, interleukin-15, interleukin-34 and TGF-β; 0 to 250 μM of myricetin; and 0 to 50 μM of superoxide dismutase were administered. That is, lymphocytes measured to be a total number of 2.0×10^7 cells were added to 5 to 100 mL of KBM502 medium including the above-described plasma, antibodies, cytokines, myricetin and superoxide dismutase, and cultured in a CO2 incubator for 4 to 14 days. After peripheral blood mononuclear cells were separated, the cells were suspended in MACS buffer from Miltenyi Biotec and reacted with Human CD8 MicroBeads, and then CD8+ cells were removed using an LD column in a QuadroMACS Separator. Then, the cells were cultured using the same culturing method as in Example 1, and treated with myricetin and superoxide dismutase by selecting the treatment concentration having the highest regulatory T cell distribution in Example 1. To confirm the differentiation of regulatory T cells, staining was performed with an anti-human antibody or mouse isotype antibody (BD-Pharmingen San Jose, USA) under a condition of CD4+, CD25+ and CD127−, which are surface proteins of regulatory T cells, measured by flow cytometry, and then analyzed using BD Accuri C6 Plus.

[3] = Day 0, after removal of CD8, flow cytometry
[4] = Day 7 of culture, after removal of CD8
[5] = Day 7 of culture, after removal of CD8, control 92.3

| Molecule | CD4+, CD25+, CD127− (%) ([1]; Day 0, before culture) | CD4+, CD25+, CD127− (%) ([1]; Day 7 of culture, control 18.0) | Total number of cells ([1]; Day 7 of culture) | CD4+, CD25+, CD127− (%) [2, 3] | Total number of cells [2, 4] | CD4+, CD25+, CD127− (%) [2, 5] |
| --- | --- | --- | --- | --- | --- | --- |
| superoxide dismutase [S1] | 1.2% | 37.4% | 22.5 ×10^7 cells | 0.7% | 21.5 ×10^7 cells | 97.6% |
| O=c1c(O)c(-c2cc(O)c(O)c(O)c2)oc2cc(O)cc(O)c12 [M1, myricetin] | 2.1% | 22.4% | 26.8 ×10^7 cells | – | – | – |
| O=c1c(O)c(-c2cc(O)c(O)c(O)c2)oc2cc(O)cc(O)c12 [M3, myricetin] | 2.1% | 24.7% | 28.6 ×10^7 cells | 0.4% | 20.8 ×10^7 cells | 97.6% |
| O=c1c(O)c(-c2cc(O)c(O)c(O)c2)oc2cc(O)cc(O)c12 [M4, myricetin] | 2.1% | 23.3% | 25.6 ×10^7 cells | – | – | – |
| superoxide dismutase [S3] | 1.2% | 36.0% | 24.4 ×10^7 cells | – | – | – |
| O=c1c(O)c(-c2cc(O)c(O)c(O)c2)oc2cc(O)cc(O)c12 [M2, myricetin] | 2.1% | 22.9% | 26.7 ×10^7 cells | – | – | – |
| superoxide dismutase [S2] | 1.2% | 37.1% | 25.2 ×10^7 cells | – | – | – |
